From US6495525B1, “VLA-4 inhibitor: oMePUPA-V” (Biogen, Inc., priority 1998, dated 2002)

How the values were obtained:
VLA-4 [1] = molecular target: T1, VLA-4 (Mus musculus, UniProt P09055+Q00651); test: VCAM-Ig Competitive Binding Assay on mouse splenocytes; conditions: Mn+2
T1 construct: from tissue; host or cells: mouse spleen cells

VLA-4 [2] = molecular target: VLA-4 (Homo sapiens, UniProt P05556+P13612); test: CS1 Cell Adhesion Assay, Jurkat cells to CS1/BSA conjugate; type: cell-based; design: endogenous in cells; host or cells: Jurkat (human T cell line)
Method: The peptide NH2-cysteine-tyrosine-CS-1 was synthesized and coupled to BSA-SMCC (SMCC is a heterobifunctional crosslinker which reacts with free amino groups on BSA and the sole cysteine of the synthetic peptide) at a CS1/BSA ratio of 10:1. Wells were coated overnight with 100 μL of conjugate diluted to a final concentration of 1 ug/ml. The next day the wells were blocked with BSA in PBS for one hour and then washed three times.
The human T cell line, Jurkat, was labeled with 2 μM BCECF-AM, a fluorescent dye (2′, 7′, bis-(2-carboxyethyl)-5 and -6) carboxy fluorescein acetoxymethyl ester (Molecular Probes Inc., Eugene, Oregon; catalog #B-1150) that is internalized and deesterified thus trapping the dye within live cells. Jurkat cells (1×10^5 cells/well) in buffer containing 1 mM Mn^+2 were added to the coated plates in the presence of three-fold serial dilutions of inhibitor. Each concentration was assayed in duplicate. After 30 minutes at room temperature, the plates were inverted and washed three times or until no cells were adherent to control wells coated with BSA alone. CS1-adherent cells were quantitated in a Cytofluor fluorescent platereader using an excitation wavelength of 485 nm and an emission wavelength of 530 nm.
Cells adhered to CS1/BSA in the absence of compound served as the 0% inhibition control whereas cells adhering to BSA alone served as the 100% inhibition control. IC50's were calculated using Deltagraph software, version 5.

Chain of VLA-4 (Homo sapiens, UniProt P05556+P13612) (P13612 34-1032): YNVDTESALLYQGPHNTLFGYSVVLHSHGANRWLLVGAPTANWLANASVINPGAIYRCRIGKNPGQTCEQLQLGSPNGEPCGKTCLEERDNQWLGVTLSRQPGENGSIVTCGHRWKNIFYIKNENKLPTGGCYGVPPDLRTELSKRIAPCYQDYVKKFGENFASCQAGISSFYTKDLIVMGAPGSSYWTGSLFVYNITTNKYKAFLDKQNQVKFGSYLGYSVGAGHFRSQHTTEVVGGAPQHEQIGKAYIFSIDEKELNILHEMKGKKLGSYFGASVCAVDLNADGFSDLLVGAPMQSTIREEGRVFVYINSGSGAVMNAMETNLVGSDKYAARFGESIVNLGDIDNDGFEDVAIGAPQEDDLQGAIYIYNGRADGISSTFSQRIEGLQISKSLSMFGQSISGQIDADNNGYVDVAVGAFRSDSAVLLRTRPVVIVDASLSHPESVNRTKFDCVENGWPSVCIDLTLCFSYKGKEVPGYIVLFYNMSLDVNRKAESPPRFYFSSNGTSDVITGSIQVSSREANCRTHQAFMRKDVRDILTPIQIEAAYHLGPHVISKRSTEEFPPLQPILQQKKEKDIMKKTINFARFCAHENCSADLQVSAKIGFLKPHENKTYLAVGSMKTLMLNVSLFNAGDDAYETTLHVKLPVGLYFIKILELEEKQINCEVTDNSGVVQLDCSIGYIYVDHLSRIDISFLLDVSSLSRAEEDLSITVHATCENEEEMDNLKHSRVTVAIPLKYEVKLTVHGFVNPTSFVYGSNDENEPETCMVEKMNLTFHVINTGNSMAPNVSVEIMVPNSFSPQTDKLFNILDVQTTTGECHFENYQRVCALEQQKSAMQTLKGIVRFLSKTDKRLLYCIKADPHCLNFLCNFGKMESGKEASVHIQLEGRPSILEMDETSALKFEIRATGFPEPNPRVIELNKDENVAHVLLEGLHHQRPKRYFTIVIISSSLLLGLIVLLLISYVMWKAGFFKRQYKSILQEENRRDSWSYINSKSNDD
Chain of VLA-4 (Homo sapiens, UniProt P05556+P13612) (P05556 21-798): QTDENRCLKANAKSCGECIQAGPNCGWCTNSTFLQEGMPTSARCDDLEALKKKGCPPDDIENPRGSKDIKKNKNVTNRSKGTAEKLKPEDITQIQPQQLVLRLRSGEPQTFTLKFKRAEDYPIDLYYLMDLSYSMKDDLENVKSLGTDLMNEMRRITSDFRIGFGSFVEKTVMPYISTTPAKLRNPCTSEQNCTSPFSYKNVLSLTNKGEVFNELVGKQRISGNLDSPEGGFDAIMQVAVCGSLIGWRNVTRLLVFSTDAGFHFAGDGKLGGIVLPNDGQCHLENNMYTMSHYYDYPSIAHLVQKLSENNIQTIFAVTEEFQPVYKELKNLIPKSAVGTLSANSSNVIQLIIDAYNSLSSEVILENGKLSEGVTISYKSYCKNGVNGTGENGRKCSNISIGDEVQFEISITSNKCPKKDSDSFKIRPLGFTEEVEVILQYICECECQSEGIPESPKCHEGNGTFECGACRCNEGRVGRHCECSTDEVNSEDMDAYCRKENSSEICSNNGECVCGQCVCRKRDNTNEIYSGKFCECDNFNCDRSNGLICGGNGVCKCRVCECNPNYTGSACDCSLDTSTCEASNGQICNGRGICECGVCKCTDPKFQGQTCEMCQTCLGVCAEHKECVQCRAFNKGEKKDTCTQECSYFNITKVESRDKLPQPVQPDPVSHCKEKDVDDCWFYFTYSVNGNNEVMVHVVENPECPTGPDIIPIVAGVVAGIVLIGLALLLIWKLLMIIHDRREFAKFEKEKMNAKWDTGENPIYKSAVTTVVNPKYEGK
T1 sequence (Q00651 41-1039): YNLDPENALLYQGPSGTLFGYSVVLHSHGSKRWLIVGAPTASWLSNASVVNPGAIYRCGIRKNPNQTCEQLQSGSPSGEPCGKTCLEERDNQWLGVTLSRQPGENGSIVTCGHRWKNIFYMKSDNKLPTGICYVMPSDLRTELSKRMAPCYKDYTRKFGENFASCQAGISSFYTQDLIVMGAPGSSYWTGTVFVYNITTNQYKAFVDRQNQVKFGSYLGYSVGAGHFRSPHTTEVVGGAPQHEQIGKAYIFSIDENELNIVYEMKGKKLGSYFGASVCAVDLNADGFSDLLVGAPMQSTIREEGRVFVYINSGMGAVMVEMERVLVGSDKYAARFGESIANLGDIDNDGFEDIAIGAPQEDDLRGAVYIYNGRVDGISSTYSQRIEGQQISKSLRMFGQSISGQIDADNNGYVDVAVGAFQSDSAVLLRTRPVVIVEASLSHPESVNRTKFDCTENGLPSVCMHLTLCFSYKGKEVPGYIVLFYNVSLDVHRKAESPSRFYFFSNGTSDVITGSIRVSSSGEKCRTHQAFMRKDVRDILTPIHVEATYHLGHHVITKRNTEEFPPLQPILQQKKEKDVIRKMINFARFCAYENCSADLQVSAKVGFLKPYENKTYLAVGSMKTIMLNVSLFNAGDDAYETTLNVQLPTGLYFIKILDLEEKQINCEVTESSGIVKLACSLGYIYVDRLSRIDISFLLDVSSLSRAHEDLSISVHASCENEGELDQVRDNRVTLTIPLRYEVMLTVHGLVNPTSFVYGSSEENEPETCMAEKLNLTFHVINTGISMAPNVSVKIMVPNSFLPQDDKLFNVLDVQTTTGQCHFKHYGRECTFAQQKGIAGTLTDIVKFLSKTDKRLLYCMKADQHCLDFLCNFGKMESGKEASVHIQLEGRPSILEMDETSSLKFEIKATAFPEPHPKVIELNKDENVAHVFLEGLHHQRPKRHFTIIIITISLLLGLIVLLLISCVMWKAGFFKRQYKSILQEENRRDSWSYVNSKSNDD
T1 sequence (P09055 21-798): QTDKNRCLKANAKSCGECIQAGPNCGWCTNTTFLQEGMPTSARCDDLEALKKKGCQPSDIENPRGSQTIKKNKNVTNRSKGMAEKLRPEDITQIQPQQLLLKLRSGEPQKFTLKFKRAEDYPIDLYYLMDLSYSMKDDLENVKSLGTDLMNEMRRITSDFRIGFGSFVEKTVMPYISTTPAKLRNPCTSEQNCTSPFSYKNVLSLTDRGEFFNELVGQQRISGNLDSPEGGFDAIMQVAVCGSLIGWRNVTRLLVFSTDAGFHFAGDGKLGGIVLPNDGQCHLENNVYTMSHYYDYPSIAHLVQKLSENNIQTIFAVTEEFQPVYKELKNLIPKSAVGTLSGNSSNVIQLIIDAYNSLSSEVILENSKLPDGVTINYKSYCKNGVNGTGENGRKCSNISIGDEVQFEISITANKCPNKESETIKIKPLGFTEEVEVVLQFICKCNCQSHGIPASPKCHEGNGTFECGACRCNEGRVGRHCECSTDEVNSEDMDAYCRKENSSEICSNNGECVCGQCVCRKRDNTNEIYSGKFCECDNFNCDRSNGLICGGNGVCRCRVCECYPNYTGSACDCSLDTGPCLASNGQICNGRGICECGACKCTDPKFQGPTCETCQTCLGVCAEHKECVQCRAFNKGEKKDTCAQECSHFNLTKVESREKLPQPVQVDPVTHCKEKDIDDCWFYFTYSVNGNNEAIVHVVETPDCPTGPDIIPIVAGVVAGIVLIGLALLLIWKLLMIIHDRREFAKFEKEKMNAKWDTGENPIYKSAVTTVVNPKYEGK

## Cc1ccccc1NC(=O)Nc1ccc(CC(=O)N2CCC[C@H]2C(=O)N[C@H](C)CC(=O)O)cc1 [oMePUPA-V]
VLA-4 [1]
  IC50: 0.004 ± 0.002 µM
VLA-4 [2]; 1 mM MnCl2, read-out: IC50 ± SD, Jurkat cell CS1 adhesion
  IC50: 0.022 µM
VLA-4 [2]; in the presence of Mn+2
  blocking of Jurkat cell adhesion to CS1 (in words): completely block
